How the values were obtained:
[1] = molecular target: BACE 1 (beta secretase enzyme) (Homo sapiens, UniProt P56817); test: In vitro enzymatic BACE FRET assay; assay type: biochemical; details: average IC50, pH 4.2
Protocol: In Vitro Enzymatic BACE FRET (Fluorescence Resonance Energy Transfer) Assay
The assay buffer used in this screen is 0.05 M acetate, pH 4.2, 10% DMSO final, 100 uM genapol (which is a nonionic detergent, below its Critical Micelle Concentration). The beta secretase enzyme (0.2 nM) is pre-incubated for one hour with inhibitors, typically in about 1 uL of DMSO according to a serial dilution, are added thereto. This assay is effectively started by the addition of FRET substrate (50 nM) and the combination is incubated for one hour. The FRET assay is terminated with by addition of Tris buffer, which raises the pH to neutrality, and the fluorescence is determined. The FRET substrate is a peptide with commercially available fluorophore and quencher, on opposite sides of the BACE cleavage site. Proteolytic cleavage of the FRET substrate releases quenching of fluorescence (excitation […] and […]).

[2] = tested on: Aβ40 in conditioned medium of cells stably expressing Amyloid Precursor Protein (APP); test: In vitro BACE cell-based assay (HEK cell assay, Aβ40 sandwich ELISA); details: average IC50, Aβ40, 24 h incubation
Protocol: In Vitro BACE Cell-Based Assay
The cell-based assay measures inhibition or reduction of Aβ40 in conditioned medium of test compound treated cells expressing amyloid precursor protein.
Cells stably expressing Amyloid Precursor Protein (APP) were plated at a density of 40K cells/well in 96 well plates (Costar). The cells were cultivated for 24 hours at 37° C. and 5% CO2 in DMEM supplemented with 10% FBS. The test compounds were then added to cells in 10-point dose response concentrations with the starting concentration being either 100 μM or 10 μM. The compounds were diluted from stock solutions in DMSO and the final DMSO concentration of the test compounds on cells was 0.1%. After 24 h of incubation with the test compounds the supernatant conditioned media was collected and the Aβ 40 levels were determined using a sandwich ELISA. The IC50 of the compound was calculated from the percent of control or percent inhibition of Aβ 40 as a function of the concentration of the test compound.
The sandwich ELISA to detect Aβ 40 was performed in 96 well microtiter plates, which were pre-treated with goat anti-rabbit IgG (Pierce). The capture and detecting antibody pair that were used to detect Aβ 40 from cell supernatants were affinity purified pAb40 (Biosource) and biotinylated 6E10 (Signet Labs Inc.), respectively. The optimal concentration for the pAb40 antibody was 3 μg/ml in Superblock/TBS (Pierce) that was supplemented with 0.05% Tween 20 (Sigma). Optimal concentration for the detection antibody 6E10-biotinylated was 0.5 μg/ml in Superblock/TBS (Pierce) that had been supplemented with 2% normal goat serum and 2% normal mouse serum.
Cellular supernatants were incubated with the capture antibody for 3 h at 4° C., followed by 3 wash steps in TBS-tween (0.05%). The detecting antibody incubation was for 2 h at 4° C., again followed by the wash steps as described previously. The final readout of the ELISA is Time-Resolved Fluorescence (counts per minute) using Delfia reagents Streptavidin-Europium and Enhancement solutions (Perkin Elmer) and the Victor 2 multilabel counter (Perkin Elmer).

[3] = molecular target: T1, Cathepsin D (Homo sapiens, UniProt P07339); test: In vitro enzymatic Cat D (Cathepsin D) FRET assay; assay type: biochemical; details: average IC50, pH 3.5
T1 construct: made in house; host or cells: CHO cells
T1 sequence (P07339 65-412, species assumed): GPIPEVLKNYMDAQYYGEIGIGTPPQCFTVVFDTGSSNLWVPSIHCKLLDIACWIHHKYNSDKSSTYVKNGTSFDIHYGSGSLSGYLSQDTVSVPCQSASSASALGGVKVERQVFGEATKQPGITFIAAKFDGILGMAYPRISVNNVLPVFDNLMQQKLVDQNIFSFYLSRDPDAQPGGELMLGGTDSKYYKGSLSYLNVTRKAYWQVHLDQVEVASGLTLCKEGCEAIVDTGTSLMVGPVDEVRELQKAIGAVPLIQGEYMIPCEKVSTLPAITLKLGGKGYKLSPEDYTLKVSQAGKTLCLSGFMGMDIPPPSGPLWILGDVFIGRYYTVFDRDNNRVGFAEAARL
Protocol: In Vitro Enzymatic Cat D (Cathepsin D) FRET (Fluorescence Resonance Energy Transfer) Assay
Recombinant CathepsinD was expressed in CHO cells. The assay buffer for CathepsinD is 0.05 M citrate pH 3.5, 10% DMSO final, 5 mM CHAPS. The CathepsinD enzyme (9 nM) is pre-incubated for one hour with inhibitors, typically in about 1 uL of DMSO according to a serial dilution, is added thereto. The assays are effectively started by the addition of different FRET substrates (20 nM for CathepsinD) and the combination is incubated for one hour. The FRET assay is terminated with by addition of Tris buffer, which raises the pH to neutrality, and the fluorescence is determined. The FRET substrate is a peptide with commercially available fluorophore and quencher, on opposite sides of the BACE cleavage site. The CathepsinD substrate peptide sequence is based on sequence #1 of Table 1 from Gulnik et al. FEBS Letters v413 p 379-384 1997. Proteolytic cleavage of the FRET substrate releases quenching of fluorescence (CathepsinD excitation 500 nm and emission 580 nm). […]

[4] = tested on: Abeta 40; test: In vivo inhibition of beta-secretase: Abeta 40 reduction in rat CSF and brain; details: after 4 hrs; for % reduction of rat CSF Abeta 40 levels at 10 mpk: Abeta 40, rat CSF; for % reduction of rat brain levels at 10 mpk: Abeta 40, rat brain
Description: In Vivo Inhibition of Beta-Secretase
Several animal models, including mouse, rat, dog, and monkey, may be used to screen for inhibition of beta-secretase activity in vivo following administration of a test compound sample. Animals used in this invention can be wild type, transgenic, or gene knockout animals. For example, the Tg2576 mouse model, prepared and conducted as described in Hsiao et al., 1996, Science 274, 99-102, and other non-transgenic or gene knockout animals are useful to analyze in vivo inhibition of Amyloid beta peptide (Abeta) production in the presence of inhibitory test compounds. Generally, 2 to 18 month old Tg2576 mice, gene knockout mice or non-transgenic animals are administered test compounds formulated in vehicles, such as cyclodextran, phosphate buffers, hydroxypropyl methylcellulose or other suitable vehicles. One to twenty-four hours following the administration of compound, animals are sacrificed, and brains as well as cerebrospinal fluid (CSF) and plasma are removed for analysis of A-beta levels and drug or test compound concentrations (Dovey et al., 2001, Journal of Neurochemistry, 76, 173-181) Beginning at time 0, animals are administered by oral gavage, or other means of delivery such as intravenous injection, an inhibitory test compound of up to 100 mg/kg in a standard, conventional formulation, such as 2% hydroxypropyl methylcellulose, 1% Tween80. A separate group of animals receive 2% hydroxypropyl methylcellulose, 1% Tween80 alone, containing no test compound, and serve as a vehicle-control group. At the end of the test period, animals are sacrificed and brain tissues, plasma or cerebrospinal fluid are collected. Brains are either homogenized in 10 volumes (w/v) of 0.2% diethylamine (DEA) in 50 mM NaCl (Best et al., 2005, Journal of Pharmacology and Experimental Therapeutics, 313, 902-908), or in 10 volumes of 0.5% TritonX-100 in Tris-buffered saline (pH at about 7.6). Homogenates are centrifuged at 355,000 g, 4° C. for 30 minutes. CSF or brain supernatants are then analyzed for the presence of A-beta peptide by specific sandwich ELISA assays based on ECL (Electrochemiluminescence) technology. For example, rat Abeta40 is measured using biotinylated-4G8 (Signet) as a capture antibody and Fab40 (an in-house antibody specific to the C-terminal of Abeta40) as a detection antibody. For example, 4 hours after administration of 30 mg/kg oral dose of the test compound in 2% hydroxypropyl methylcellulose, 1% Tween80 (pH2.2) to 200 g male Sprague Dawley rats, amyloid beta peptide levels are measured for reduction by X % and Y % in cerebrospinal fluid and brain, respectively, when compared to the levels measured in the vehicle-treated rats.
Actual vehicles used: Oral: 2% HPMC, 1% Tween80, pH 2.2
The compounds of the invention may be shown to reduce the formation and/or deposition of amyloid beta peptide in the cerebrospinal fluid (CSF) as well as in the brain of a mouse or rat at either 3 mpk, 10 mpk or 30 mpk (mpk=mg compound per kg weight of the animal) dosing concentrations after 4 hrs.

Chain of BACE 1 (beta secretase enzyme) (P56817 46-501): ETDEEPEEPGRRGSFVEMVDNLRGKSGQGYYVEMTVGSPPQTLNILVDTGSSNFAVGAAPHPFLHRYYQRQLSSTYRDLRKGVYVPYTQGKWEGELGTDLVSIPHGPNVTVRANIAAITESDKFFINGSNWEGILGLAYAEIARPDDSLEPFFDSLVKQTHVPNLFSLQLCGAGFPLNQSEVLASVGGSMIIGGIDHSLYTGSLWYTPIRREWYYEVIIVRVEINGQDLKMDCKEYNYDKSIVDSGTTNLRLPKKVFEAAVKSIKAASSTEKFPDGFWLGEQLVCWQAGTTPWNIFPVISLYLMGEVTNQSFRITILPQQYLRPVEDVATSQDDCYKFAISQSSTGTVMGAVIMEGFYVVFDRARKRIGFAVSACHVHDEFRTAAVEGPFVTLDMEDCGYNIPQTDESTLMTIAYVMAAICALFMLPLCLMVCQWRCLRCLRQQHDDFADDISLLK

Row | Compound | IC50 [1] [nM] | IC50 [3] [nM] | IC50 ([2]; Homo sapiens, HEK293) [nM] | IC50 [2] [nM] | % reduction of rat CSF Abeta 40 levels at 10 mpk [4] [%] | % reduction of rat brain levels at 10 mpk [4] [%]
1 | COc1cnc2c(Nc3ccc4c(c3)[C@@]3(CCOC(N)=N3)c3cc(C5=CCOCC5)ncc3O4)ccnc2c1 [Example 33] | 19.4 |  |  | 0.4 |  | 
2 | COc1cnc2c(Nc3ccc4c(c3)[C@@]3(CCSC(N)=N3)c3cc(-c5ccnc(OC(C)C)c5)nc(F)c3O4)nccc2c1 [Example 40, (5S)-1-fluoro-N~7~-(3-methoxy-1,7-naphthyridin-8-yl)-3-(2-(1-methylethoxy)-4-pyridinyl)-5′,6′-dihydrospiro[chromeno[2,3-c]pyridine-5,4′-[1,3]thiazine]-2′,7-diamine] | 15.6 | 400000 | 138 |  |  | 
3 | COc1cnc2c(Nc3ccc4c(c3)[C@@]3(CCOC(N)=N3)c3cc(C5=CCOCC5)ncc3O4)nccc2c1 [Example 43, (5S)-3-(3,6-dihydro-2H-pyran-4-yl)-N~7~-(3-methoxy-1,7-naphthyridin-8-yl)-5′,6′-dihydrospiro[chromeno[2,3-c]pyridine-5,4′-[1,3]oxazine]-2′,7-diamine] | 14.8 | 400000 | 2.6 |  |  | 
4 | COc1cnc2c(Nc3ccc4c(c3)[C@@]3(CCSC(N)=N3)c3cc(C5=CCCOC5)ncc3O4)nccc2c1 [Example 34, (5S)-3-(5,6-dihydro-2H-pyran-3-yl)-N~7~-(3-methoxy-1,7-naphthyridin-8-yl)-5′,6′-dihydrospiro[chromeno[2,3-c]pyridine-5,4′-[1,3]thiazine]-2′,7-diamine] | 13.2 | 336000 | 5.4 |  | 44 | 5
5 | COc1cnc2c(Nc3ccc4c(c3)[C@@]3(CCOC(N)=N3)c3cc(C5CC5)ncc3O4)nccc2c1 [Example 38] | 17.9 | 400000 | 2 |  | 39 | 25
6 | COc1cnc2c(Nc3ccc4c(c3)[C@@]3(CCOC(N)=N3)c3cc(Cl)nc(F)c3O4)nccc2c1 [Example 35, (5S)-3-chloro-1-fluoro-N-~7~-(3-methoxy-1,7-naphthyridin-8-yl)-5′,6′-dihydrospiro[chromeno[2,3-c]pyridine-5,4′-[1,3]oxazine]-2′,7-diamine] | 97.2 | 400000 | 35.3 |  |  | 

Compounds with a lower IC50 [1], results first:

Row | IC50 [1] [nM] | IC50 [3] [nM] | IC50 ([2]; Homo sapiens, HEK293) [nM] | Compound | IC50 [2] [nM] | % reduction of rat CSF Abeta 40 levels at 10 mpk [4] [%] | % reduction of rat brain levels at 10 mpk [4] [%]
7 | 11.3 | 133000 | 2.7 | COc1cnc2c(Nc3ccc4c(c3)[C@@]3(CCOC(N)=N3)c3cc(C(C)C)ncc3O4)nccc2c1 [Example 36, (5S)-N~7~-(3-methoxy-1,7-naphthyridin-8-yl)-3-(1-methylethyl)-5′,6′-dihydrospiro[chromeno[2,3-c]pyridine-5,4′-[l,3]oxazine]-2′,7-diamine] |  | 58 | 19
8 | 4.3 | 313000 | 5.3 | COc1cnc2c(Nc3ccc4c(c3)[C@@]3(CCSC(N)=N3)c3cc(C5=CCCOC5)nc(F)c3O4)nccc2c1 [Example 31, (5S)-3-(5,6-dihydro-2H-pyran-3-yl)-1-fluoro-N~7~-(3-methoxy-1,7-naphthyridin-8-yl)-5′,6′-dihydrospiro[chromeno[2,3-c]pyridine-5,4′-[1,3]thiazine]-2′,7-diamine] |  |  | 
9 | 5.3 | 400000 | 4.1 | Cc1nc2c(Nc3ccc4c(c3)[C@@]3(CCOC(N)=N3)c3cc(C5=CCOCC5)ncc3O4)nccc2s1 [Example 44, (5S)-3-(3,6-dihydro-2H-pyran-4-yl)-N~7~-(2-methyl[1,3]thiazolo[4,5-c]pyridin-4-yl)-5′,6′-dihydrospiro[chromeno[2,3-c]pyridine-5,4′-[1,3]oxazine]-2′,7-diamine] |  |  | 
10 | 6.9 | 400000 | 2.6 | COc1cnc2c(Nc3ccc4c(c3)[C@@]3(CCOC(N)=N3)c3cc(C5CC5)ncc3O4)nccc2n1 [Example 42, (5S)-3-cyclopropyl-N~7~-(2-methoxypyrido[3,4-b]pyrazin-5-yl)-5′,6′-dihydrospiro[chromeno[2,3-c]pyridine-5,4′-[1,3]oxazine]-2′,7-diamine] |  |  | 
11 | 3.2 | 338000 | 12.3 | COc1cnc2c(Nc3ccc4c(c3)[C@@]3(CCSC(N)=N3)c3cc(-c5ccnc(F)c5)nc(F)c3O4)nccc2c1 [Example 39, (5S)-1-fluoro-3-(2-fluoro-4-pyridinyl)-N~7~-(3-methoxy-1,7-naphthyridin-8-yl)-5′,6′-dihydrospiro[chromeno[2,3-c]pyridine-5,4′-[1,3]thiazine]-2′,7-diamine] |  |  | 
12 | 3.2 | 400000 | 16 | COc1cnc2c(Nc3ccc4c(c3)[C@@]3(CCSC(N)=N3)c3cc(-c5cncc(F)c5)nc(F)c3O4)nccc2c1 [Example 41, (5S)-1-fluoro-3-(5-fluoro-3-pyridinyl)-N~7~-(3-methoxy-1,7-naphthyridin-8-yl)-5′,6′-dihydrospiro[chromeno[2,3-c]pyridine-5,4′-[1,3]thiazine]-2′,7-diamine] |  |  | 

Source: patent US9725469B2, “Amino-oxazine and amino-dihydrothiazine compounds as beta-secretase modulators and methods of use” (Amgen Inc., priority 2012, dated 2017)
